Results reported in patent US20250049676A1, “ANTIMICROBIAL SYSTEM WITH INDOLE ALKALOID AND PHENOLIC ACID AND COMPOSITIONS COMPRISING THEM” (Conopco, Inc., d/b/a UNILEVER, priority 2021, published 2025).
Like-named read-outs stand apart in the source and are kept apart here.

How the values were obtained:
[1] = system: Enterobacter gergoviae ATCC 33028; assay: Liquid broth assay (MIC and checkerboard), Enterobacter gergoviae; format: cell-based; details: for MIC: Pluralibacter gergoviae, read-out: minimal inhibitory concentration (MIC); for concentration needed in combination to achieve the inhibitory effect: gramine with syringic acid, concentration of the named component in the mixture
Excerpt: (§1) Naturally derived antimicrobial systems were made, as shown below by combining the indole alkaloid and phenolic acid. Two pools were set up and each pool contained 1 organism. The strains involved were Enterobacter gergoviae ATCC 33028 of the family Pluralibacter gergoviae, a Gram-negative and Aspergillus brasiliensis ATCC 16404. FIC test range was 16 times greater than the projected MIC for each sample.
(§2) The differing behaviors of inhibitory antimicrobials in isolation and mixtures have been widely explored using the concept of the Fractional Concentration and Fractional Inhibitory Concentration (FIC). See for instance JRW Lambert and R Lambert, J. Appl. Microbiol 95, 734 (2003); T. Jadavji, CG Prober and R Cheung, Antibacterial Agents and Chemotherapy 26, 91 (1984), and WO 2004/006876. MIC is the minimum inhibitory concentration a component prevents visible growth of a microbe. The FC and FIC parameters can be defined as follows:
(§3) FC (Component A)=Concentration of Component A tested in the mixture/MIC (Component A tested as a single active)
(§4) FIC (component a)=MIC (component a tested in the mixture)/MIC (component a tested as a single active)
(§5) The interactions between antimicrobials can be additive, synergistic or possibly antagonistic depending on whether the efficacy of the combination is equivalent to, greater than or less than that obtained for the same total concentration of the individual components when tested alone. These relationships can be expressed mathematically by summing the fractional MIC values for all the components present in the mixture to give the “fractional inhibitory index”:
(§6) Such that: • ΣFIC greater than 0.5 corresponds to indifferent, additive or antagonistic activity • ΣFIC less than or equal to 0.5 corresponds to synergistic activity
(§7) Liquid broth assays (MIC and checkerboard) were conducted to identify the minimum concentration(s) of individual and binary combinations of natural preservation materials. A modified methodology to ISO 20776-1:2006 was utilized for the screening as follows. Stock solutions of each preservation chemical at 200 ul/cell (or well) each and 100 ul of broth were created in separate 96-well plates. Each of the two-preservation chemical/broth mixes was then combined in a third 96 well plate at varying concentrations and then inoculated with 1-5×10^6 microorganisms and incubated at 30° C. for 24 hours, after which optical densities at OD600 nm were measured.

[2] = system: Aspergillus brasiliensis ATCC 16404; assay: Liquid broth assay (MIC and checkerboard), Aspergillus brasiliensis; format: cell-based; details: for MIC: Aspergillus brasiliensis; for concentration needed in combination to achieve the inhibitory effect: gramine with syringic acid, concentration of the named component in the mixture
Excerpt: as §1, §2, §3, §4, §5, §6, §7

Structure (SMILES)	MIC ([1]; ATCC33028, 24 h)	concentration needed in combination to achieve the inhibitory effect [1]	MIC ([2]; ATCC16404, 24 h)	concentration needed in combination to achieve the inhibitory effect [2]	MIC ([1]; ATCC33028, component by itself, MIC = <25% growth vs positive control, 30° C., 24 hours, OD600)	MIC ([2]; ATCC16404, component by itself, MIC = <25% growth vs positive control, 30° C., 24 hours, OD600, read-out: MIC)
COc1cc(C(=O)O)cc(OC)c1O [Syringic Acid, 4-Hydroxy-3,5-dimethoxybenzoic acid]	> 50 mg/mL	0.781 mg/mL	> 50 mg/mL	6.25 mg/mL	–	–
CN(C)Cc1c[nH]c2ccccc12 [Gramine, 1-(1H-Indol-3-yl)-N,N-dimethylmethanamine]	–	0.098 mg/mL	–	1,563 mg/ml	6.25 mg/mL	12.5 mg/mL
